This note sets out measurements from publication PMC11487561 (ACS Chemical Neuroscience, 2024).

What all share (test): Lead Profiling Screen – Eurofins Panlabs
Experiment [1] has as its system Calcium Channel L-Type, Benzothiazepine. Type of experiment: binding, rat.
For experiment [2], the target named is T1, Dopamine D2S (Homo sapiens, UniProt P14416).
T1 construct: Eurofins Panlabs (contract screen)
Type of experiment: binding. The note with it: read-out: % inh at 10 μM.

For experiment [3], the target named is Melatonin MT1 (Homo sapiens, UniProt P48039). The class given is binding. The conditions noted are these: read-out: % inh at 10 μM.
Sequence of Melatonin MT1 (P48039 whole entry): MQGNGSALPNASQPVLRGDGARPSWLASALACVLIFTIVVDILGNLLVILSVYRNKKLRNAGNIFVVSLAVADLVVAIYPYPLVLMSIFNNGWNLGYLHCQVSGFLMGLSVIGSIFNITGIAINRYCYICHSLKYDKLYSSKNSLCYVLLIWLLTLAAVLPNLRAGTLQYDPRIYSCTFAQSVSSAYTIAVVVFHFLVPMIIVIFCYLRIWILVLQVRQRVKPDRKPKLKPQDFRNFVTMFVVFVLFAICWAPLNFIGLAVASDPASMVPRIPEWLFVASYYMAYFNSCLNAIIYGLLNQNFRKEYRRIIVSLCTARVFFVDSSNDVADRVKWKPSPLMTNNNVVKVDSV

T1 sequence (P14416 1-414 isoform P14416-2): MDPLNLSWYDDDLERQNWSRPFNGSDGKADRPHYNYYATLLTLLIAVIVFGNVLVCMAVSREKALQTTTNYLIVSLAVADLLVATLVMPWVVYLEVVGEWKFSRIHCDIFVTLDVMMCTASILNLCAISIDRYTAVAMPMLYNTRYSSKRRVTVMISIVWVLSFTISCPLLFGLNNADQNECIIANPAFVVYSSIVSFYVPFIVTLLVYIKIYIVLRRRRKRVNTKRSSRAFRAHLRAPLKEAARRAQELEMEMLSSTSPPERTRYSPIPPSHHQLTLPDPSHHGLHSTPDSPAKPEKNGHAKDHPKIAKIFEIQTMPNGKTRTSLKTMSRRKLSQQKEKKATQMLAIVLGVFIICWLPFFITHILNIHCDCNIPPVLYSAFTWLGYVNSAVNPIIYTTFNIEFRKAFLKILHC

Turning to `Cc1nc(C)c2c(n1)sc1c(NCc3ccc(C(C)(C)O)cc3)nccc12` [22g], the “% inh at 10 μM” value in experiment [1] stood at 6%. The inhibition at 10 µM in experiment [2] was -4%; in experiment [3], 7%.
